Experimental data: PubChem BioAssay (NCI)
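Grown in 96-well plates, cells were treated for 48 hours with each compound at five concentrations. Insufficient inhibition: endpoint recorded as highest concentration tested. GI50 is the concentration that inhibits growth by half. TGI denotes the concentration required for complete inhibition of growth.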

Columns and labels:
Experiment in all cases: growth of human tumour cells (NCI), 48 h
EKVX NSCLC = test system: EKVX NSCLC
SW-620 colon = test system: SW-620 colon
786-0 renal = test system: 786-0 renal
HL-60(TB) leukemia = test system: HL-60(TB) leukemia
SNB-19 CNS = test system: SNB-19 CNS
SNB-75 CNS = test system: SNB-75 CNS
HOP-62 NSCLC = test system: HOP-62 NSCLC
BT-549 breast = test system: BT-549 breast
CAKI-1 renal = test system: CAKI-1 renal
HCT-15 colon = test system: HCT-15 colon
A549 NSCLC = test system: A549 NSCLC
NCI-H522 lung = test system: NCI-H522 lung
HCC-2998 colon = test system: HCC-2998 colon
RPMI-8226 leukemia = test system: RPMI-8226 leukemia
U251 CNS = test system: U251 CNS
NCI/ADR-RES ovarian = test system: NCI/ADR-RES ovarian
SF-268 CNS = test system: SF-268 CNS
SK-MEL-2 melanoma = test system: SK-MEL-2 melanoma
SK-MEL-5 melanoma = test system: SK-MEL-5 melanoma
SF-539 CNS = test system: SF-539 CNS
HCT-116 colon = test system: HCT-116 colon
MCF7 breast = test system: MCF7 breast
OVCAR-3 ovarian = test system: OVCAR-3 ovarian
RXF 393 renal = test system: RXF 393 renal
SF-295 CNS = test system: SF-295 CNS
HOP-92 NSCLC = test system: HOP-92 NSCLC
ACHN renal = test system: ACHN renal
DU-145 prostate = test system: DU-145 prostate
IGROV1 ovarian = test system: IGROV1 ovarian
T-47D breast = test system: T-47D breast
COLO 205 colon = test system: COLO 205 colon
UO-31 renal = test system: UO-31 renal
NCI-H226 lung = test system: NCI-H226 lung
NCI-H460 lung = test system: NCI-H460 lung
KM12 colon = test system: KM12 colon
UACC-257 melanoma = test system: UACC-257 melanoma
OVCAR-8 ovarian = test system: OVCAR-8 ovarian
MOLT-4 leukemia = test system: MOLT-4 leukemia
A498 renal = test system: A498 renal
LOX IMVI melanoma = test system: LOX IMVI melanoma
SK-OV-3 ovarian = test system: SK-OV-3 ovarian
TK-10 renal = test system: TK-10 renal
HS 578T breast = test system: HS 578T breast
CCRF-CEM leukemia = test system: CCRF-CEM leukemia
MDA-MB-435 = test system: MDA-MB-435
OVCAR-5 ovarian = test system: OVCAR-5 ovarian
NCI-H23 lung = test system: NCI-H23 lung
MDA-MB-231 breast = test system: MDA-MB-231 breast
SK-MEL-28 melanoma = test system: SK-MEL-28 melanoma
OVCAR-4 ovarian = test system: OVCAR-4 ovarian
HT29 colon = test system: HT29 colon
PC-3 prostate = test system: PC-3 prostate
M14 melanoma = test system: M14 melanoma
UACC-62 melanoma = test system: UACC-62 melanoma
SN12C renal = test system: SN12C renal
MALME-3M melanoma = test system: MALME-3M melanoma

`CC1(C)CCC2(CC1)N[C@@H](C(=O)N[C@@H]1CC[C@@H](C(N)=O)OC1)[C@H](c1ccnc(Cl)c1F)[C@]21C(=O)Nc2cc(Cl)ccc21` showed a GI50 (EKVX NSCLC) of 2.38 µM, a TGI (EKVX NSCLC) of 7.6 µM and a GI50 (SW-620 colon) of 3.81 µM. It also gave a TGI (SW-620 colon) of 23.1 µM, a GI50 (786-0 renal) of 2.77 µM and a TGI (786-0 renal) of 8.51 µM. It also gave a GI50 (HL-60(TB) leukemia) of 2.36 µM, a TGI (HL-60(TB) leukemia) of 5.59 µM and a GI50 (SNB-19 CNS) of 3.38 µM. The TGI (SNB-19 CNS) was 15.2 µM, the GI50 (SNB-75 CNS) was 2.17 µM and the TGI (SNB-75 CNS) was 9.38 µM. The GI50 (HOP-62 NSCLC) was 2.31 µM, the TGI (HOP-62 NSCLC) was 7.83 µM and the GI50 (BT-549 breast) was 2.45 µM. It also gave a TGI (BT-549 breast) of 7.52 µM, a GI50 (CAKI-1 renal) of 0.0622 µM and a TGI (CAKI-1 renal) of 4.15 µM. It also gave a GI50 (HCT-15 colon) of 2.88 µM, a TGI (HCT-15 colon) of 10.1 µM and a GI50 (A549 NSCLC) of 0.26 µM. The TGI (A549 NSCLC) was 13.1 µM, the GI50 (NCI-H522 lung) was 2.01 µM and the TGI (NCI-H522 lung) was 4.46 µM. The GI50 (HCC-2998 colon) was 1.7 µM, the TGI (HCC-2998 colon) was 3.21 µM and the GI50 (RPMI-8226 leukemia) was 2.12 µM. The TGI (RPMI-8226 leukemia) was 5.57 µM, the GI50 (U251 CNS) was 2.8 µM and the TGI (U251 CNS) was 9.64 µM. The GI50 (NCI/ADR-RES ovarian) was 16.3 µM, the TGI (NCI/ADR-RES ovarian) was 45.5 µM and the GI50 (SF-268 CNS) was 3.5 µM. For the same compound, the TGI (SF-268 CNS) was 19.1 µM, the GI50 (SK-MEL-2 melanoma) was 2.16 µM and the TGI (SK-MEL-2 melanoma) was 5.02 µM. For the same compound, the GI50 (SK-MEL-5 melanoma) was 0.743 µM, the TGI (SK-MEL-5 melanoma) was 2.17 µM and the GI50 (SF-539 CNS) was 1.93 µM. The TGI (SF-539 CNS) was 4.66 µM, the GI50 (HCT-116 colon) was 0.07 µM and the TGI (HCT-116 colon) was 6.96 µM. The GI50 (MCF7 breast) was 0.037 µM, the TGI (MCF7 breast) was 2.28 µM and the GI50 (OVCAR-3 ovarian) was 2.75 µM. The TGI (OVCAR-3 ovarian) was 8.2 µM, the GI50 (RXF 393 renal) was 2.26 µM and the TGI (RXF 393 renal) was 5.67 µM. It also gave a GI50 (SF-295 CNS) of 2.14 µM, a TGI (SF-295 CNS) of 5.04 µM and a GI50 (HOP-92 NSCLC) of 1.78 µM. For the same compound, the TGI (HOP-92 NSCLC) was 4.79 µM, the GI50 (ACHN renal) was 0.139 µM and the TGI (ACHN renal) was 2.28 µM. For the same compound, the GI50 (DU-145 prostate) was 3.94 µM, the TGI (DU-145 prostate) was 16.1 µM and the GI50 (IGROV1 ovarian) was 0.793 µM. For the same compound, the TGI (IGROV1 ovarian) was 6.13 µM, the GI50 (T-47D breast) was 2.58 µM and the TGI (T-47D breast) was 7.85 µM. For the same compound, the GI50 (COLO 205 colon) was 2.11 µM, the TGI (COLO 205 colon) was 5.39 µM and the GI50 (UO-31 renal) was 0.261 µM. The TGI (UO-31 renal) was 3.04 µM, the GI50 (NCI-H226 lung) was 0.0935 µM and the TGI (NCI-H226 lung) was 0.804 µM. The GI50 (NCI-H460 lung) was 0.179 µM, the TGI (NCI-H460 lung) was 2.05 µM and the GI50 (KM12 colon) was 2.39 µM. For the same compound, the TGI (KM12 colon) was 6.23 µM, the GI50 (UACC-257 melanoma) was 0.19 µM and the TGI (UACC-257 melanoma) was 2.53 µM. For the same compound, the GI50 (OVCAR-8 ovarian) was 3.92 µM, the TGI (OVCAR-8 ovarian) was 27.7 µM and the GI50 (MOLT-4 leukemia) was 0.107 µM. The TGI (MOLT-4 leukemia) was 3.13 µM, the GI50 (A498 renal) was 0.111 µM and the TGI (A498 renal) was 3.95 µM. It also gave a GI50 (LOX IMVI melanoma) of 0.124 µM, a TGI (LOX IMVI melanoma) of 2 µM and a GI50 (SK-OV-3 ovarian) of 3 µM. For the same compound, the TGI (SK-OV-3 ovarian) was 9.27 µM, the GI50 (TK-10 renal) was 3.13 µM and the TGI (TK-10 renal) was 15.7 µM. For the same compound, the GI50 (HS 578T breast) was 2.33 µM, the TGI (HS 578T breast) was 10.4 µM and the GI50 (CCRF-CEM leukemia) was 3.01 µM. For the same compound, the TGI (CCRF-CEM leukemia) was 13.3 µM, the GI50 (MDA-MB-435) was 2.44 µM and the TGI (MDA-MB-435) was 6.22 µM. It also gave a GI50 (OVCAR-5 ovarian) of 2.15 µM, a TGI (OVCAR-5 ovarian) of 5.9 µM and a GI50 (NCI-H23 lung) of 3.73 µM. For the same compound, the TGI (NCI-H23 lung) was 15.4 µM, the GI50 (MDA-MB-231 breast) was 1.92 µM and the TGI (MDA-MB-231 breast) was 3.98 µM. The GI50 (SK-MEL-28 melanoma) was 1.95 µM, the TGI (SK-MEL-28 melanoma) was 4.06 µM and the GI50 (OVCAR-4 ovarian) was 3.19 µM. For the same compound, the TGI (OVCAR-4 ovarian) was 14.1 µM, the GI50 (HT29 colon) was 2.22 µM and the TGI (HT29 colon) was 6.01 µM. It also gave a GI50 (PC-3 prostate) of 2.26 µM, a TGI (PC-3 prostate) of 6.25 µM and a GI50 (M14 melanoma) of 2.14 µM. The TGI (M14 melanoma) was 5.63 µM, the GI50 (UACC-62 melanoma) was 0.0556 µM and the TGI (UACC-62 melanoma) was 2.05 µM. It also gave a GI50 (SN12C renal) of 3.13 µM, a TGI (SN12C renal) of 12 µM and a GI50 (MALME-3M melanoma) of 0.0482 µM. It also gave a TGI (MALME-3M melanoma) of 2.03 µM.
